# Results: publication PMC10408569, “Recruitment of hexahydroquinoline as anticancer scaffold targeting inhibition of wild and mutants EGFR (EGFR^WT, EGFR^T790M, and EGFR^L858R)” (Journal of Enzyme Inhibition and Medicinal Chemistry, 2023)
# What was measured:
# Test in all cases: NCI-60 anticancer screening (SRB)
# Type in all cases: cell-based
# SF-295 = conditions: Homo sapiens; SF-295, CNS cancer; one dose 10 μM; read-out: Growth Inhibition Percentage (GI %)
# SK-OV-3 = conditions: Homo sapiens; SK-OV-3, ovarian cancer; one dose 10 μM; read-out: Growth Inhibition Percentage (GI %)
# CCRF-CEM = conditions: Homo sapiens, leukemia, one dose 10 μM, read-out: Growth Inhibition Percentage (GI %)
# SK-MEL-28 = conditions: Homo sapiens; SK-MEL-28, melanoma; one dose 10 μM; read-out: Growth Inhibition Percentage (GI %)
# DU-145 = conditions: Homo sapiens; DU-145, prostate cancer; one dose 10 μM; read-out: Growth Inhibition Percentage (GI %)
# RPMI-8226 = conditions: Homo sapiens; RPMI-8226, leukemia; one dose 10 μM; read-out: Growth Inhibition Percentage (GI %)
# EKVX = conditions: Homo sapiens, NSC lung cancer, one dose 10 μM, read-out: Growth Inhibition Percentage (GI %)
# MDA-MB-435 = conditions: Homo sapiens; MDA-MB-435, melanoma; one dose 10 μM; read-out: Growth Inhibition Percentage (GI %)
# SNB-75 = conditions: Homo sapiens; SNB-75, CNS cancer; one dose 10 μM; read-out: Growth Inhibition Percentage (GI %)
# MDA-MB-468 = conditions: Homo sapiens; MDA-MB-468, breast cancer; one dose 10 μM; read-out: Growth Inhibition Percentage (GI %)
# HCT-15 = conditions: Homo sapiens; HCT-15, colon cancer; one dose 10 μM; read-out: Growth Inhibition Percentage (GI %)
# MALME-3M = conditions: Homo sapiens, melanoma, one dose 10 μM, read-out: Growth Inhibition Percentage (GI %)
# ACHN = conditions: Homo sapiens, renal cancer, one dose 10 μM, read-out: Growth Inhibition Percentage (GI %)
# PC-3 = conditions: Homo sapiens; PC-3, prostate cancer; one dose 10 μM; read-out: Growth Inhibition Percentage (GI %)
# HOP-92 = conditions: Homo sapiens; HOP-92, NSC lung cancer; one dose 10 μM; read-out: Growth Inhibition Percentage (GI %)
# HCT-116 = conditions: Homo sapiens; HCT-116, colon cancer; one dose 10 μM; read-out: Growth Inhibition Percentage (GI %)
# K-562 = conditions: Homo sapiens, K562; K-562, leukemia; one dose 10 μM; read-out: Growth Inhibition Percentage (GI %)
# A549/ATCC = conditions: Homo sapiens; A549/ATCC, NSC lung cancer; one dose 10 μM; read-out: Growth Inhibition Percentage (GI %)
# OVCAR-5 = conditions: Homo sapiens; OVCAR-5, ovarian cancer; one dose 10 μM; read-out: Growth Inhibition Percentage (GI %)
# SF-268 = conditions: Homo sapiens; SF-268, CNS cancer; one dose 10 μM; read-out: Growth Inhibition Percentage (GI %)
# U251 = conditions: Homo sapiens, U-251; U251, CNS cancer; one dose 10 μM; read-out: Growth Inhibition Percentage (GI %)
# IGROV1 = conditions: Homo sapiens, IGROV-1; IGROV1, ovarian cancer; one dose 10 μM; read-out: Growth Inhibition Percentage (GI %)
# OVCAR-8 = conditions: Homo sapiens; OVCAR-8, ovarian cancer; one dose 10 μM; read-out: Growth Inhibition Percentage (GI %)
# SR = conditions: Homo sapiens, leukemia, one dose 10 μM, read-out: Growth Inhibition Percentage (GI %)
# UACC-257 = conditions: Homo sapiens; UACC-257, melanoma; one dose 10 μM; read-out: Growth Inhibition Percentage (GI %)
# SF-539 = conditions: Homo sapiens; SF-539, CNS cancer; one dose 10 μM; read-out: Growth Inhibition Percentage (GI %)
# SNB-19 = conditions: Homo sapiens; SNB-19, CNS cancer; one dose 10 μM; read-out: Growth Inhibition Percentage (GI %)
# NCI-H226 = conditions: Homo sapiens; NCI-H226, NSC lung cancer; one dose 10 μM; read-out: Growth Inhibition Percentage (GI %)
Structure (SMILES),inhibition at 10 µM (SF-295) [%],inhibition at 10 µM (SK-OV-3) [%],inhibition at 10 µM (CCRF-CEM) [%],inhibition at 10 µM (SK-MEL-28) [%],inhibition at 10 µM (DU-145) [%],inhibition at 10 µM (RPMI-8226) [%],inhibition at 10 µM (EKVX) [%],inhibition at 10 µM (MDA-MB-435) [%],inhibition at 10 µM (SNB-75) [%],inhibition at 10 µM (MDA-MB-468) [%],inhibition at 10 µM (HCT-15) [%],inhibition at 10 µM (MALME-3M) [%],inhibition at 10 µM (ACHN) [%],inhibition at 10 µM (PC-3) [%],inhibition at 10 µM (HOP-92) [%],inhibition at 10 µM (HCT-116) [%],inhibition at 10 µM (K-562) [%],inhibition at 10 µM (A549/ATCC) [%],inhibition at 10 µM (OVCAR-5) [%],inhibition at 10 µM (SF-268) [%],further results
"CCOC(=O)C1=C(N)N(c2ccccc2)C2=C(C(=O)CC(C)(C)C2)C1c1ccccc1OC (racemic) [6g, (±)-Ethyl 2-amino-4–(2-methoxyphenyl)-7,7-dimethyl-5-oxo-1-phenyl-1,4,5,6,7,8-hexahydroquinoline-3-carboxylate]",11,< 10,< 10,< 10,< 10,< 10,< 10,< 10,< 10,11,< 10,< 10,< 10,11,< 10,< 10,< 10,< 10,< 10,< 10,inhibition at 10 µM (U251): < 10%; inhibition at 10 µM (IGROV1): < 10%; inhibition at 10 µM (OVCAR-8): < 10%; inhibition at 10 µM (SR): < 10%; inhibition at 10 µM (UACC-257): < 10%; inhibition at 10 µM (SF-539): < 10%; inhibition at 10 µM (SNB-19): < 10%; inhibition at 10 µM (NCI-H226): < 10%
"CCOC(=O)C1=C(N)N(c2ccc(Cl)cc2)C2=C(C(=O)CC(C)(C)C2)C1c1ccc(OC)cc1 (racemic) [8h, (±)-Ethyl 2-amino-1–(4-chlorophenyl)-4–(4-methoxyphenyl)-7,7-dimethyl-5-oxo-1,4,5,6,7,8-hexahydroquinoline-3-carboxylate]",< 10,< 10,< 10,< 10,< 10,< 10,< 10,< 10,< 10,< 10,< 10,< 10,< 10,< 10,< 10,< 10,< 10,< 10,< 10,< 10,inhibition at 10 µM (U251): < 10%; inhibition at 10 µM (IGROV1): < 10%; inhibition at 10 µM (OVCAR-8): < 10%; inhibition at 10 µM (SR): < 10%; inhibition at 10 µM (UACC-257): < 10%; inhibition at 10 µM (SF-539): < 10%; inhibition at 10 µM (SNB-19): < 10%; inhibition at 10 µM (NCI-H226): < 10%
CCOC(=O)C1=C(N)N(c2ccccc2)C2=C(C(=O)CC(C)(C)C2)C1c1cccnc1 (racemic) [12d],< 10,< 10,< 10,< 10,< 10,< 10,< 10,< 10,17,< 10,< 10,< 10,< 10,< 10,< 10,< 10,< 10,< 10,< 10,< 10,inhibition at 10 µM (U251): < 10%; inhibition at 10 µM (IGROV1): < 10%; inhibition at 10 µM (OVCAR-8): < 10%; inhibition at 10 µM (SR): < 10%; inhibition at 10 µM (UACC-257): < 10%; inhibition at 10 µM (SF-539): < 10%; inhibition at 10 µM (SNB-19): < 10%; inhibition at 10 µM (NCI-H226): < 10%
"CCOC(=O)C1=C(N)N(c2ccccc2)C2=C(C(=O)CC(C)(C)C2)C1c1ccccn1 (racemic) [12a, (±)-Ethyl 2-amino-7,7-dimethyl-5-oxo-1-phenyl-4-(pyridin-2-yl)-1,4,5,6,7,8-hexahydroquinoline-3-carboxylate]",< 10,< 10,< 10,< 10,< 10,< 10,< 10,< 10,19,< 10,< 10,< 10,< 10,< 10,< 10,< 10,< 10,< 10,< 10,< 10,inhibition at 10 µM (U251): < 10%; inhibition at 10 µM (IGROV1): < 10%; inhibition at 10 µM (OVCAR-8): < 10%; inhibition at 10 µM (SR): 16%; inhibition at 10 µM (UACC-257): < 10%; inhibition at 10 µM (SF-539): < 10%; inhibition at 10 µM (SNB-19): < 10%; inhibition at 10 µM (NCI-H226): < 10%
"CCOC(=O)C1=C(N)N(c2ccc(C)cc2)C2=C(C(=O)CC(C)(C)C2)C1c1ccc(Cl)cc1 (racemic) [8d, (±)-Ethyl 2-amino-4–(4-chlorophenyl)-7,7-dimethyl-1–(4-methylphenyl)-5-oxo-1,4,5,6,7,8-hexahydroquinoline-3-carboxylate]",< 10,< 10,< 10,< 10,< 10,< 10,15,< 10,35,18,35,< 10,< 10,43,< 10,14,< 10,14,< 10,< 10,inhibition at 10 µM (U251): < 10%; inhibition at 10 µM (IGROV1): < 10%; inhibition at 10 µM (OVCAR-8): 13%; inhibition at 10 µM (SR): < 10%; inhibition at 10 µM (UACC-257): < 10%; inhibition at 10 µM (SF-539): < 10%; inhibition at 10 µM (SNB-19): < 10%; inhibition at 10 µM (NCI-H226): < 10%
